Patent US9247759B2, “Identification of human T2R receptors that respond to bitter compounds that elicit the bitter taste in compositions, and the use thereof in assays to identify compounds that inhibit (block) bitter taste in compositions and use thereof” (SENOMYX, INC., priority 2007, dated 2016)
Like-named read-outs stand apart in the source and are kept apart here.

Molecular target: hT2R8 (Homo sapiens (Human), UniProt Q9NYW2)
Experiment: hT2R8 antagonist high-throughput FLIPR assay, stable cell line with G16g44, agonist andrographolide
Format: cell-based
Source text: After a ligand is identified for a particular hT2R, a HEK293 cell line stably expressing both the hT2R and G16gust44 are generated, facilitating future screening assays to identify other ligands that activate the particular hT2R or which modulate (block or enhance) the activation of this hT2R by another bitter ligand such as a bitter compound contained in coffee. This avoids the need for transient transfection.
(§1) To identify antagonists, cell lines stably expressing hT2R8 and hT2R14, respectively, together with the promiscuous chimeric G16g44 protein were generated as described in previous patent applications. A high-throughput assay was established using the stable cell lines and FLIPR (Fluorescent Imaging Plate Reader). An agonist of hT2R8 or hT2R14 was used to activate the receptors up to 70-80% of their respective maximal activity. For hT2R8, the agonist used was andrographolide (200 λM); for hT2R14, it was aristolochic acid (3 μM). To identify antagonists, compounds with diverse chemical structures were added together with the agonist.
as §1, with “hT2R8” for “hT2R8 and hT2R14, respectively,”, “hT2R8” for “hT2R8 or hT2R14”, “(200” for “(200 λM); for hT2R14, it was aristolochic acid (3”

[1] = read-out: IC50 on hT2R8 bitter receptor
[2] = table after Example 10-97, read-out: hT2R8 IC50
[3] = unit uM, read-out: IC50 on hT2R08 bitter receptor
[4] = table after Example 12-37, read-out: hT2R8 IC50

Sequence of hT2R8 (Q9NYW2 whole entry): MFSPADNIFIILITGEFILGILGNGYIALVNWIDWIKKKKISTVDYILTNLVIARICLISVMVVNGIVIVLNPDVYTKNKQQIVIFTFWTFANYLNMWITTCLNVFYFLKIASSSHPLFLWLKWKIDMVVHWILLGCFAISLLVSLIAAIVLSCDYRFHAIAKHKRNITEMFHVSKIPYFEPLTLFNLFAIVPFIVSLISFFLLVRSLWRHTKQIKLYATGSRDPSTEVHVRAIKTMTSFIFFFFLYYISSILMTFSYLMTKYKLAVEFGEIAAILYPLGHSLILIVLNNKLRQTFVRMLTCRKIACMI

IC50 [1] [µM]	IC50 (Table A, read-out: hT2R8 IC50) [µM]	Structure (SMILES)	also measured
2.64	–	Cc1noc(C)c1Cn1cc(N2CN(Cc3ccccc3)CN(CCc3ccccc3)C2=O)cn1 [Example 9-7, 5-benzyl-1-(1-((3,5-dimethylisoxazol-4-yl)methyl)-1H-pyrazol-4-yl)-3-phenethyl-1,3,5-triazinan-2-one]	IC50 [2]: 6.58 µM
–	1.36	Cc1noc(C)c1Cn1cc(NS(=O)(=O)c2ccccc2C#N)cn1 [Example 4-99, 2-cyano-N-(1-((3,5-dimethylisoxazol-4-yl)methyl)-1H-pyrazol-4-yl)benzenesulfonamide]	–
–	1.94	CCC(C)CC(=O)Nc1cnn(Cc2c(C)noc2C)c1 (centres unmarked) [Example 4-60, N-(1-((3,5-dimethylisoxazol-4-yl)methyl)-1H-pyrazol-4-yl)-3-methylpentanamide]	–
–	0.72	Cc1c[nH]c(C(=O)Nc2cnn(Cc3c(C)noc3C)c2)c1 [Example 4-45, N-(1-((3,5-dimethylisoxazol-4-yl)methyl)-1H-pyrazol-4-yl)-4-methyl-1H-pyrrole-2-carboxamide]	–
–	8.23	Cc1noc(C)c1Cn1cc(N(C)C(=O)C2(c3ccccc3)CC2)cn1 [Example 4-66, N-(1-((3,5-dimethylisoxazol-4-yl)methyl)-1H-pyrazol-4-yl)-N-methyl-1-phenylcyclopropanecarboxamide]	–
–	–	Cc1noc(C)c1Cn1cc(N2C(=O)CN(Cc3ccc(F)cc3)C2=O)cn1 [Example 10-31, 3-(1-((3,5-dimethylisoxazol-4-yl)methyl)-1H-pyrazol-4-yl)-1-(4-fluorobenzyl)imidazolidine-2,4-dione]	IC50 [2]: 0.045 µM; IC50 [3]: 0.05 µM
0.25	–	Cc1noc(C)c1Cn1cc(N2C(=O)CN(CCc3ccccc3Cl)C2=O)cn1 [Example 10-81, 1-(2-chlorophenethyl)-3-(1-((3,5-dimethylisoxazol-4-yl)methyl)-1H-pyrazol-4-yl)imidazolidine-2,4-dione]	IC50 [2]: 0.248 µM
–	–	Cc1noc(C)c1Cn1cc(N2C(=O)CN(Cc3cc(C)n(C)n3)C2=O)cn1 [Example 10-28, 1-((1,5-dimethyl-1H-pyrazol-3-yl)methyl)-3-(1-((3,5-dimethylisoxazol-4-yl)methyl)-1H-pyrazol-4-yl) imidazolidine-2,4-dione]	IC50 [2]: 0.322 µM; IC50 [3]: 0.3 µM
–	–	COc1ccc(CN2C(=O)N(c3cnn(Cc4c(C)noc4C)c3)C(=O)C2(C)C)nc1 [Example 12-51, 3-(1-((3,5-dimethylisoxazol-4-yl)methyl)-1H-pyrazol-4-yl)-1-((5-methoxypyridin-2-yl)methyl)-5,5-dimethylimidazolidine-2,4-dione]	IC50 [4]: 0.19 µM
–	1.56	Cc1noc(C)c1Cn1cc(NC(=O)c2ccc(F)cc2)cn1 [Example 4-23, N-(1-((3,5-dimethylisoxazol-4-yl)methyl)-1H-pyrazol-4-yl)-4-fluorobenzamide]	–
–	–	Cc1noc(C)c1Cn1cc(N2C(=O)N(Cc3ccccc3O)C(C)(C)C2=O)cn1 [Example 12-39, 3-(1-((3,5-dimethylisoxazol-4-yl)methyl)-1H-pyrazol-4-yl)-1-(2-hydroxybenzyl)-5,5-dimethylimidazolidine-2,4-dione]	IC50 [4]: 0.07 µM
–	–	Cc1noc(C)c1Cn1cc(N2C(=O)N(Cc3cc(F)ccc3F)C(C)(C)C2=O)cn1 [Example 12-59, 1-(2,5-difluorobenzyl)-3-(1-((3,5-dimethylisoxazol-4-yl)methyl)-1H-pyrazol-4-yl)-5,5-dimethylimidazolidine-2,4-dione]	IC50 [4]: 0.24 µM
–	–	Cc1noc(C)c1Cn1cc(N2C(=O)CN(Cc3ccn(C)n3)C2=O)cn1 [Example 10-38, 3-(1-((3,5-dimethylisoxazol-4-yl)methyl)-1H-pyrazol-4-yl)-1-((1-methyl-1H-pyrazol-3-yl)methyl)imidazolidine-2,4-dione]	IC50 [2]: 0.363 µM; IC50 [3]: 0.4 µM
–	0.61	COc1cccc(C(=O)Nc2cnn(Cc3c(C)noc3C)c2)c1OC [Example 4-25, N-(1-((3,5-dimethylisoxazol-4-yl)methyl)-1H-pyrazol-4-yl)-2,3-dimethoxybenzamide]	–
0.3	–	COc1cc(CN2C(=O)N(c3cnn(Cc4c(C)noc4C)c3)C(=O)C2(C)C)cc(OC)c1 [Example 12-18, 1-(3,5-dimethoxybenzyl)-3-(1-((3,5-dimethylisoxazol-4-yl)methyl)-1H-pyrazol-4-yl)-5,5-dimethylimidazolidine-2,4-dione]	–
0.01	–	Cc1noc(C)c1Cn1cc(N2C(=O)[C@H](C)N(Cc3ccccc3)C2=O)cn1 [Example 12-11, (S)-1-benzyl-3-(1-((3,5-dimethylisoxazol-4-yl)methyl)-1H-pyrazol-4-yl)-5-methylimidazolidine-2,4-dione]	–
–	2.9	COc1cccc(C(=O)Nc2cnn(Cc3c(C)noc3C)c2)c1O [Example 4-71, N-(1-((3,5-dimethylisoxazol-4-yl)methyl)-1H-pyrazol-4-yl)-2-hydroxy-3-methoxybenzamide]	–

IC50 [1] [µM]	IC50 (Table A, read-out: hT2R8 IC50) [µM]	Structure (SMILES)	also measured
–	–	COc1ccc(CCN2C(=O)N(c3cnn(Cc4c(C)noc4C)c3)C(=O)C2(C)C)cc1OC [Example 12-49, 1-(3,4-dimethoxyphenethyl)-3-(1-((3,5-dimethylisoxazol-4-yl)methyl)-1H-pyrazol-4-yl)-5,5-dimethylimidazolidine-2,4-dione]	IC50 [4]: 0.13 µM
0.13	–	COCc1cccc(CN2C(=O)N(c3cnn(Cc4c(C)noc4C)c3)C(=O)C2(C)C)c1 [Example 12-35, 3-(1-((3,5-dimethylisoxazol-4-yl)methyl)-1H-pyrazol-4-yl)-1-(3-(methoxymethyl)benzyl)-5,5-dimethylimidazolidine-2,4-dione]	–
0.8	–	Cc1noc(C)c1Cn1cc(-n2c(=O)n(Cc3ccccc3)n(Cc3ccccc3)c2=O)cn1 [Example 10-70, 1,2-dibenzyl-4-(1-((3,5-dimethylisoxazol-4-yl)methyl)-1H-pyrazol-4-yl)-1,2,4-triazolidine-3,5-dione]	IC50 [2]: 1.8 µM
–	0.39	COc1ccccc1C(=O)Nc1cnn(Cc2c(C)noc2C)c1 [Example 4-19, N-(1-((3,5-dimethylisoxazol-4-yl)methyl)-1H-pyrazol-4-yl)-2-methoxybenzamide]	–
–	–	COc1ccc(CN2CC(=O)N(c3cnn(Cc4c(C)noc4C)c3)C2=O)cc1O [Example 10-13, 3-(1-((3,5-dimethylisoxazol-4-yl)methyl)-1H-pyrazol-4-yl)-1-(3-hydroxy-4-methoxybenzyl)imidazolidine-2,4-dione]	IC50 [2]: 0.087 µM; IC50 [3]: 0.1 µM
0.75	–	Cc1noc(C)c1Cn1cc(N2C(=O)NC(CC(=O)Nc3ccccc3)C2=O)cn1 (centres unmarked) [Example 10-48, 2-(1-(1-((3,5-dimethylisoxazol-4-yl)methyl)-1H-pyrazol-4-yl)-2,5-dioxoimidazolidin-4-yl)-N-phenylacetamide]	IC50 [2]: 0.747 µM
–	5	CO[C@@H](C(=O)Nc1cnn(Cc2c(C)noc2C)c1)c1ccccc1 [Example 4-68, (R)-N-(1-((3,5-dimethylisoxazol-4-yl)methyl)-1H-pyrazol-4-yl)-2-methoxy-2-phenylacetamide]	–
–	2.6	Cc1noc(C)c1Cn1cc(NC(=O)c2ccc3ocnc3c2)cn1 [Example 4-72, N-(1-((3,5-dimethylisoxazol-4-yl)methyl)-1H-pyrazol-4-yl)benzo[d]oxazole-5-carboxamide]	–
–	0.98	COc1ccc(O)c(C(=O)Nc2cnn(Cc3c(C)noc3C)c2)c1 [Example 4-27, N-(1-((3,5-dimethylisoxazol-4-yl)methyl)-1H-pyrazol-4-yl)-2-hydroxy-5-methoxybenzamide]	–
–	2.1	Cc1cc2cc(C(=O)Nc3cnn(Cc4c(C)noc4C)c3)ccc2o1 [Example 4-75, N-(1-((3,5-dimethylisoxazol-4-yl)methyl)-1H-pyrazol-4-yl)-2-methylbenzofuran-5-carboxamide]	–
0.2	–	Cc1noc(C)c1Cn1cc(NC(=O)c2ccc3c(c2)OCO3)cn1 [Example 4-8, N-(1-((3,5-dimethylisoxazol-4-yl)methyl)-1H-pyrazol-4-yl)benzo[d][1,3]dioxole-5-carboxamide]	–
–	2.81	Cc1noc(C)c1Cn1cc(N(C)C(=O)C(C)c2ccccc2)cn1 (centres unmarked) [Example 4-65, N-(1-((3,5-dimethylisoxazol-4-yl)methyl)-1H-pyrazol-4-yl)-N-methyl-2-phenylpropanamide]	–
0.25	–	Cc1noc(C)c1Cn1cc(NC(=O)C2(c3ccccc3)CC2)cn1 [Example 4-11, N-(1-((3,5-dimethylisoxazol-4-yl)methyl)-1H-pyrazol-4-yl)-1-phenylcyclopropanecarboxamide]	–
–	2.28	Cc1noc(C)c1Cn1cc(C(=O)NCc2cccs2)sc1=O [Example 4-116, 3-((3,5-dimethylisoxazol-4-yl)methyl)-2-oxo-N-(thiophen-2-ylmethyl)-2,3-dihydrothiazole-5-carboxamide]	–
–	–	Cc1noc(C)c1Cn1cc(N2C(=O)N(CCc3ccccc3)C(C)(C)C2=O)cn1 [Example 12-56, 3-(1-((3,5-dimethylisoxazol-4-yl)methyl)-1H-pyrazol-4-yl)-5,5-dimethyl-1-phenethylimidazolidine-2,4-dione]	IC50 [4]: 0.23 µM
0.22	–	Cc1noc(C)c1Cn1cc(N2C(=O)N(Cc3cccnc3)C(C)(C)C2=O)cn1 [Example 12-36, 3-(1-((3,5-dimethylisoxazol-4-yl)methyl)-1H-pyrazol-4-yl)-5,5-dimethyl-1-(pyridin-3-ylmethyl)imidazolidine-2,4-dione]	–
